The values below come from patent publication US20260325533A1, “CDK INHIBITOR COMPOUNDS” (ALEKSIA THERAPEUTICS, INC., priority 2023, published 2026).

What all share (format): biochemical
The target of test [1] is CDK2/CCNE1 (Homo sapiens, UniProt P24941). As to the kind of experiment: CDK2 homogeneous time-resolved fluorescence (HTRF) kinase assay. Particulars: CDK2/CCNE. In outline:
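IC50 derived from 11-point, half-log dilutions (usually top 10 μM) of compound, 1% DMSO. Kinase (3 nM CDK2/CCNE1) was preincubated with compound 20 min, then phosphorylated 50 nM ULight-4E-BP1 peptide at 1 mM ATP for 60 min, 23 °C. Europium-antibody TR-FRET read after EDTA stop.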

Test [2] has as its target CDK1/CCNB1 (Homo sapiens, UniProt P06493). Description: CDK1 homogeneous time-resolved fluorescence (HTRF) kinase assay. The note with it: CDK1/CCNB. The gist of the method: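 CDK1/CCNB1 0.5 nM + cpd, 20 min 23 °C; add 1 mM ATP, 50 nM ULight-4E-BP1 peptide, 60 min 23 °C; stop 10 mM EDTA; 2 nM Eu-Ab, 60 min; HTRF 665 nm. 11-pt half-log, top 10 μM typical; IC50.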
On the technique in general: Time-resolved FRET reads energy transfer from a long-lived donor to a nearby acceptor.

Test [3] deals with CDK4/CCND3 (Homo sapiens, UniProt P11802). Description: CDK4 homogeneous time-resolved fluorescence (HTRF) kinase assay. Particulars: CDK4/CCND. In outline:
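TR-FRET read (665 nm, or 665/615 ratio) of 4E-BP1 Thr37/46 phosphorylation by 1.5 nM CDK4/CCND3 at 1 mM ATP, 50 nM ULight peptide, 1% DMSO. Reaction ran 60 min at 23 °C after 20 min compound–enzyme preincubation. IC50 from 11-point half-log dilutions, top 10 μM.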

Test [4] has as its target CDK6/CCND1 (Homo sapiens, UniProt Q00534). Description: CDK6 homogeneous time-resolved fluorescence (HTRF) kinase assay. The note with it: CDK6/CCND. In outline:
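Assay conditions: HEPES buffer containing 10 mM MgCl2, 1 mM EGTA, 2 mM DTT, 0.01% Tween 20; 1 nM CDK6/CCND1, 50 nM peptide substrate, 1 mM ATP. Detection after 60 min reaction used 2 nM europium antibody with 340 nm excitation. Potency fitted from half-log series, 11 points.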

[5] abbreviates: x = IC50 25-250 nM, read-out: CDK2/CCNE IC50 (25-250 nM).
Setting [6] is: x = IC50 >250 nM, read-out: CDK1/CCNB IC50 (>250 nM column).
Setting [7] is: x = IC50 >250 nM, read-out: CDK4/CCND IC50 (>250 nM column).
Setting [8] is: x = IC50 >250 nM, read-out: CDK6/CCND IC50 (>250 nM column).
The mark [9] stands for this setting: x = IC50 <25 nM, read-out: CDK2/CCNE IC50 (<25 nM).
Where [10] appears, read: x = IC50 >250 nM, read-out: CDK2/CCNE IC50 (>250 nM column).

Read-outs that look alike come from different tables or passages of the source.

Chain of CDK4/CCND3 (P11802 whole entry): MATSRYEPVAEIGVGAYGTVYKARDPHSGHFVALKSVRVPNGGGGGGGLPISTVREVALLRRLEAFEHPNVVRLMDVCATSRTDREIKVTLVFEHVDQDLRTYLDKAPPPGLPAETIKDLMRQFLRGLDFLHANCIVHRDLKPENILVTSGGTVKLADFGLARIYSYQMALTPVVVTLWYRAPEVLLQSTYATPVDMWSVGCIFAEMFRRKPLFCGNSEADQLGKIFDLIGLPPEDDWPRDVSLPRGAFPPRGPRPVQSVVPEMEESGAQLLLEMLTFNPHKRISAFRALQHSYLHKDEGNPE
Chain of CDK4/CCND3 (P30281 whole entry partner): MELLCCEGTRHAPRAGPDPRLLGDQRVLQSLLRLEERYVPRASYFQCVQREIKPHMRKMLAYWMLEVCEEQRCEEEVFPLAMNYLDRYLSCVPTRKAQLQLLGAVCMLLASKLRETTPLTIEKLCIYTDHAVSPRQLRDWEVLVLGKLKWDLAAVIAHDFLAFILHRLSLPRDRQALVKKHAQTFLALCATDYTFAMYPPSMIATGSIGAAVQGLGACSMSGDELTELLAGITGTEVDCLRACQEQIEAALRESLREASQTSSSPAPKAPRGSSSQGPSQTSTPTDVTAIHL
Chain of CDK1/CCNB1 (P06493 whole entry): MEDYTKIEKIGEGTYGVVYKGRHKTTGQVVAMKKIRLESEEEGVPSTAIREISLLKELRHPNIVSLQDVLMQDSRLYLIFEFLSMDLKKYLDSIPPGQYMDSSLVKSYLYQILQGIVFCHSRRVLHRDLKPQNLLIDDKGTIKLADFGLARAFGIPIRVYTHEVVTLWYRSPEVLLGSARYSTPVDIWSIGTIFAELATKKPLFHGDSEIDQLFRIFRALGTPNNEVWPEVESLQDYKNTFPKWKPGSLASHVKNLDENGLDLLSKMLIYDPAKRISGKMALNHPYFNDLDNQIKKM
Chain of CDK1/CCNB1 (P14635 whole entry partner): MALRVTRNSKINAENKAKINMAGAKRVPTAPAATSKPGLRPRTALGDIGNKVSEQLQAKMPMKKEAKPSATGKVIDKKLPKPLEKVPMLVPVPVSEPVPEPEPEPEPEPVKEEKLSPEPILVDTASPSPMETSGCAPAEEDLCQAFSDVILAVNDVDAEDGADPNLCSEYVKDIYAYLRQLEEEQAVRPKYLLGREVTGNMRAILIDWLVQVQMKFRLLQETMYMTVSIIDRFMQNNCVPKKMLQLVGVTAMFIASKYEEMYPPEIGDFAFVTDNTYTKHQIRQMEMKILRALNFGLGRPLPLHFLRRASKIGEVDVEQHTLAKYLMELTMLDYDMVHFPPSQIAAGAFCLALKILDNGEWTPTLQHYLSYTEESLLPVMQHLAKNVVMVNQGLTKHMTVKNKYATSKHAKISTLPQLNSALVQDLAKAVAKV
Chain of CDK6/CCND1 (Q00534 whole entry): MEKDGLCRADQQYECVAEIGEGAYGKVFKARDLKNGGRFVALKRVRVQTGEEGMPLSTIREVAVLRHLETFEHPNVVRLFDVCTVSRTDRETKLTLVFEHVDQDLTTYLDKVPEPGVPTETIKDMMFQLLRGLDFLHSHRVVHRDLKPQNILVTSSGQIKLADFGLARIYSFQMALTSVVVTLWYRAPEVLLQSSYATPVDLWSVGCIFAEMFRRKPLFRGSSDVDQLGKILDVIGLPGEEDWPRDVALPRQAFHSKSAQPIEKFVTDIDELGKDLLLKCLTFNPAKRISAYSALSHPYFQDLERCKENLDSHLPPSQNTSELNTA
Chain of CDK6/CCND1 (P24385 whole entry partner): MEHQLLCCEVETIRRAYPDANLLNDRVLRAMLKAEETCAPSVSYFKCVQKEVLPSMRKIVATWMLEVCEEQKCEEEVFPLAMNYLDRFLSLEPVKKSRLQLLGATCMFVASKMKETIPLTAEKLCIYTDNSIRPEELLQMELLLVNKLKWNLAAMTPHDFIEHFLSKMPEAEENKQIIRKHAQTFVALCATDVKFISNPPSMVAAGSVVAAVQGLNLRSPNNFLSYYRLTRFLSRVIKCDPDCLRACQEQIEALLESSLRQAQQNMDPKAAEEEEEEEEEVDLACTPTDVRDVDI

`COc1ccc(C#Cc2nccc3cnc(Nc4ccc(S(C)(=O)=O)cc4)cc23)cc1F` [Ex 499, 5-((3-fluoro-4-methoxyphenyl)ethynyl)-N-(4-(methylsulfonyl)phenyl)-2,6-naphthyridin-3-amine]: the IC50 was 25 to 250 nM in test [1] (setting [5]), more than 250 nM in test [2] (setting [6]), more than 250 nM in test [3] (setting [7]) and more than 250 nM in test [4] (setting [8]).
As to `Cc1c(C#Cc2nccc3cnc(Nc4ccc(S(C)(=O)=O)cc4)cc23)ccnc1Cl` [Ex 500, 5-((2-chloro-3-methylpyridin-4-yl)ethynyl)-N-(4-(methylsulfonyl)phenyl)-2,6-naphthyridin-3-amine], the IC50 in test [1] (setting [5]) is 25 to 250 nM; in test [2] (setting [6]), more than 250 nM; in test [3] (setting [7]), more than 250 nM; in test [4] (setting [8]), more than 250 nM.
As to `CS(=O)(=O)c1ccc(Nc2cc3c(C#Cc4cnc5[nH]c(=O)oc5c4)nccc3cn2)cc1` [Ex 501, 6-((7-((4-(methylsulfonyl)phenyl)amino)-2,6-naphthyridin-1-yl)ethynyl)oxazolo[4,5-b]pyridin-2(3H)-one], the IC50 was 25 to 250 nM in test [1] (setting [5]), more than 250 nM in test [2] (setting [6]), more than 250 nM in test [3] (setting [7]) and more than 250 nM in test [4] (setting [8]).
As to `CS(=O)(=O)c1ccc(Nc2cc3c(C#Cc4cccn5ncnc45)nccc3cn2)cc1` [Ex 502, 5-([1,2,4]triazolo[1,5-a]pyridin-8-ylethynyl)-N-(4-(methylsulfonyl)phenyl)-2,6-naphthyridin-3-amine], the IC50 in test [1] (setting [5]) is 25 to 250 nM; in test [2] (setting [6]) it was more than 250 nM; in test [3] (setting [7]) it was more than 250 nM; in test [4] (setting [8]), more than 250 nM.
With `CS(=O)(=O)c1ccc(Nc2cc3c(C#Cc4n[nH]c5c(F)cccc45)nccc3cn2)cc1` [Ex 503, 5-((7-fluoro-1H-indazol-3-yl)ethynyl)-N-(4-(methylsulfonyl)phenyl)-2,6-naphthyridin-3-amine], the IC50 was 25 to 250 nM in test [1] (setting [5]), more than 250 nM in test [2] (setting [6]), more than 250 nM in test [3] (setting [7]) and more than 250 nM in test [4] (setting [8]).
Consider `CC(C)(C#Cc1nccc2cnc(Nc3ccc(S(C)(=O)=O)cc3)cc12)CO` [Ex 504, 2,2-dimethyl-4-(7-((4-(methylsulfonyl)phenyl)amino)-2,6-naphthyridin-1-yl)but-3-yn-1-ol], for which the IC50 was less than 25 nM in test [1] (setting [9]); 25 to 250 nM in test [2] (x = IC50 25-250 nM, read-out: CDK1/CCNB IC50 (25-250 nM)); 25 to 250 nM in test [3] (x = IC50 25-250 nM, read-out: CDK4/CCND IC50 (25-250 nM)); 25 to 250 nM in test [4] (x = IC50 25-250 nM, read-out: CDK6/CCND IC50 (25-250 nM)).
With `CC(=O)Nc1ncc(C#Cc2nccc3cnc(Nc4ccc(S(C)(=O)=O)cc4)cc23)s1` [Ex 505, N-(5-((7-((4-(methylsulfonyl)phenyl)amino)-2,6-naphthyridin-1-yl)ethynyl)thiazol-2-yl)acetamide], the IC50 was 25 to 250 nM in test [1] (setting [5]), more than 250 nM in test [2] (setting [6]), more than 250 nM in test [3] (setting [7]) and more than 250 nM in test [4] (setting [8]).
`CS(=O)(=O)c1ccc(Nc2cc3c(C#Cc4ccc(N5CCCC(Cl)(Cl)C5=O)cc4)nccc3cn2)cc1` [Ex 506, 3,3-dichloro-1-(4-((7-((4-(methylsulfonyl)phenyl)amino)-2,6-naphthyridin-1-yl)ethynyl)phenyl)piperidin-2-one]: the IC50 in test [1] (setting [10]), in test [2] (setting [6]), in test [3] (setting [7]) and in test [4] (setting [8]) was more than 250 nM each time.
On to `Cc1cnc(C#Cc2nccc3cnc(Nc4ccc(S(C)(=O)=O)cc4)cc23)cn1` [Ex 507, 5-((5-methylpyrazin-2-yl)ethynyl)-N-(4-(methylsulfonyl)phenyl)-2,6-naphthyridin-3-amine], for which the IC50 in test [1] (setting [10]), in test [2] (setting [6]), in test [3] (setting [7]) and in test [4] (setting [8]) was more than 250 nM throughout.
Take `CS(=O)(=O)c1ccc(Nc2cc3c(C#Cc4ccnc(F)c4)nccc3cn2)cc1` [Ex 508, 5-((2-fluoropyridin-4-yl)ethynyl)-N-(4-(methylsulfonyl)phenyl)-2,6-naphthyridin-3-amine]: the IC50 is 25 to 250 nM in test [1] (setting [5]), more than 250 nM in test [2] (setting [6]), more than 250 nM in test [3] (setting [7]) and more than 250 nM in test [4] (setting [8]).
Turning to `Cc1cnc(F)cc1C#Cc1nccc2cnc(Nc3ccc(S(C)(=O)=O)cc3)cc12` [Ex 509, 5-((2-fluoro-5-methylpyridin-4-yl)ethynyl)-N-(4-(methylsulfonyl)phenyl)-2,6-naphthyridin-3-amine], the IC50 is 25 to 250 nM in test [1] (setting [5]), more than 250 nM in test [2] (setting [6]), more than 250 nM in test [3] (setting [7]) and more than 250 nM in test [4] (setting [8]).
As for `COc1ccc(C#Cc2nccc3cnc(Nc4ccc(S(C)(=O)=O)cc4)cc23)nn1` [Ex 514, 5-((6-methoxypyridazin-3-yl)ethynyl)-N-(4-(methylsulfonyl)phenyl)-2,6-naphthyridin-3-amine], the IC50 in test [1] (setting [10]), in test [2] (setting [6]), in test [3] (setting [7]) and in test [4] (setting [8]) was more than 250 nM throughout.
On to `Cn1cc(C#Cc2nccc3cnc(Nc4ccc(S(C)(=O)=O)cc4)cc23)ncc1=O` [Ex 515, 1-methyl-5-((7-((4-(methylsulfonyl)phenyl)amino)-2,6-naphthyridin-1-yl)ethynyl)pyrazin-2(1H)-one], for which the IC50 is 25 to 250 nM in test [1] (setting [5]), more than 250 nM in test [2] (setting [6]), more than 250 nM in test [3] (setting [7]) and more than 250 nM in test [4] (setting [8]).
In the case of `CS(=O)(=O)c1ccc(Nc2cc3c(C#Cc4nccc5[nH]ccc45)nccc3cn2)cc1` [Ex 516, 5-((1H-pyrrolo[3,2-c]pyridin-4-yl)ethynyl)-N-(4-(methylsulfonyl)phenyl)-2,6-naphthyridin-3-amine], the IC50 in test [1] (setting [10]), in test [2] (setting [6]), in test [3] (setting [7]) and in test [4] (setting [8]) was more than 250 nM each time.
As for `CS(=O)(=O)c1ccc(Nc2cc3c(C#Cc4ccc(C5CC5)nc4)nccc3cn2)cc1` [Ex 517, 5-((6-cyclopropylpyridin-3-yl)ethynyl)-N-(4-(methylsulfonyl)phenyl)-2,6-naphthyridin-3-amine], the IC50 in test [1] (setting [5]) is 25 to 250 nM; in test [2] (setting [6]) it was more than 250 nM; in test [3] (setting [7]), more than 250 nM; in test [4] (setting [8]) it was more than 250 nM.
With `CS(=O)(=O)c1ccc(Nc2cc3c(C#Cc4ccc5oc(=O)[nH]c5c4)nccc3cn2)cc1` [Ex 518, 5-((7-((4-(methylsulfonyl)phenyl)amino)-2,6-naphthyridin-1-yl)ethynyl)benzo[d]oxazol-2(3H)-one], the IC50 in test [1] (setting [9]) was less than 25 nM; in test [2] (setting [6]) it was more than 250 nM; in test [3] (setting [7]), more than 250 nM; in test [4] (setting [8]), more than 250 nM.
As for `CS(=O)(=O)c1ccc(Nc2cc3c(C#Cc4c[nH]c5nc(Cl)ncc45)nccc3cn2)cc1` [Ex 520, 5-((2-chloro-7H-pyrrolo[2,3-d]pyrimidin-5-yl)ethynyl)-N-(4-(methylsulfonyl)phenyl)-2,6-naphthyridin-3-amine], the IC50 in test [1] (setting [5]) is 25 to 250 nM; in test [2] (setting [6]) it was more than 250 nM; in test [3] (setting [7]), more than 250 nM; in test [4] (setting [8]) it was more than 250 nM.
As to `COC(=O)c1ccc(C#Cc2nccc3cnc(Nc4ccc(S(C)(=O)=O)cc4)cc23)cn1` [Ex 521, methyl 5-((7-((4-(methylsulfonyl)phenyl)amino)-2,6-naphthyridin-1-yl)ethynyl)picolinate], the IC50 is 25 to 250 nM in test [1] (setting [5]), more than 250 nM in test [2] (setting [6]), more than 250 nM in test [3] (setting [7]) and more than 250 nM in test [4] (setting [8]).
As for `CS(=O)(=O)c1ccc(Nc2cc3c(C#Cc4c[nH]c5ncccc45)nccc3cn2)cc1` [Ex 522, 5-((1H-pyrrolo[2,3-b]pyridin-3-yl)ethynyl)-N-(4-(methylsulfonyl)phenyl)-2,6-naphthyridin-3-amine], the IC50 was 25 to 250 nM in test [1] (setting [5]), more than 250 nM in test [2] (setting [6]), more than 250 nM in test [3] (setting [7]) and more than 250 nM in test [4] (setting [8]).
With `CS(=O)(=O)c1ccc(Nc2cc3c(C#Cc4cnc(C#N)nc4)nccc3cn2)cc1` [Ex 523, 5-((7-((4-(methylsulfonyl)phenyl)amino)-2,6-naphthyridin-1-yl)ethynyl)pyrimidine-2-carbonitrile], the IC50 in test [1] (setting [10]), in test [2] (setting [6]), in test [3] (setting [7]) and in test [4] (setting [8]) was more than 250 nM throughout.
